Earlier results in patent US20020048596A1, “PREPARATION FOR THE TRANSPORT OF AN ACTIVE SUBSTANCE ACROSS BARRIERS” (priority 1999, published 2002).
Like-named read-outs stand apart in the source and are kept apart here.

Compound | CMC (in water / suspension medium) | other results
CCCCCCCCCC(=O)OC[C@H](COP(=O)([O-])OCC[N+](C)(C)C)OC(=O)CCCCCCCCC [didecanoyl phosphatidyl choline] | – | CMC (unit not given): CMC ∞ 10^−6
distearoyl glycerophosphoethanolamine triazopolyethylene glycol (5000) | CMC = 10^−5M | –
CC(C)Cc1ccc(C(C)C(=O)O)cc1 (stereo not shown) [ibuprofen, reference compound] | – | solubility: ibuprofen, solubility ≦ 5 × 10^−5M
distearoyl phosphomaltobionamide | CMC = 10^−5 M | –
